What all share (type): functional
In one experiment the test system is Enterococcus faecalis. Put plainly: Antimicrobial activity against Enterococcus faecalis OG1RF after 72 hrs by broth microdilution method. Background: In broth dilution the organism is exposed to a series of concentrations in liquid medium.
The next experiment deals with Staphylococcus aureus. The experiment can be described thus: Antimicrobial activity against Staphylococcus aureus SH1000 after 72 hrs by broth microdilution method. To be noted: SH1000, 72 h.
In the next experiment the test system is Pseudomonas aeruginosa. Put plainly: Antimicrobial activity against wild-type Pseudomonas aeruginosa PAO1 after 72 hrs by broth microdilution method. The following applies: PAO1, 72 h.
In the next experiment the test system is Escherichia coli. The experiment can be described thus: Antimicrobial activity against Escherichia coli MC4100 after 72 hrs by broth microdilution method. The following applies: MC4100, 72 h.

What is called MIC is the least concentration at which growth counts as inhibited.

Consider `CCCCCCCCCCCCCCCC[N+](C)(C)CCN(C)CC[N+](C)(C)CCCCCCCCCCCCCCCC`, for which the MIC against Enterococcus faecalis was found to be 2 µM; against Staphylococcus aureus, 4 µM; in the experiment on Pseudomonas aeruginosa it was 32 µM; in the experiment on Escherichia coli, 16 µM.

On to `CCCCCCCCCCCC[N+](C)(C)CCC[N+](C)(CCCC)CCC[N+](C)(C)CCCCCCCCCCCC`, for which the MIC was 1 µM against Enterococcus faecalis, 1 µM against Staphylococcus aureus, 2 µM in the experiment on Pseudomonas aeruginosa and 1 µM in the experiment with Escherichia coli.

For `CCCCCCCCCCCC[N+](C)(C)CCC[N+](C)(CCCCCCCCCCCC)CCC[N+](C)(C)CCCCCCCCCCCC`, the MIC against Enterococcus faecalis was determined as 1 µM; against Staphylococcus aureus, 0.5 µM; with Pseudomonas aeruginosa, 4 µM; with Escherichia coli it was 1 µM.

`CCCCCCCCCCCC[N+](C)(C)Cc1ccccc1` [BENZODODECINIUM CHLORIDE]: the MIC against Enterococcus faecalis turned out to be 8 µM; against Staphylococcus aureus, 8 µM; in the experiment on Pseudomonas aeruginosa it was 63 µM; in the experiment with Escherichia coli, 32 µM.

For `C=CC[N+](C)(CC[N+](C)(C)CCCCCCCCCC)CC[N+](C)(C)CCCCCCCCCC`, the MIC in the experiment on Enterococcus faecalis came to 4 µM; against Staphylococcus aureus, 2 µM; in the experiment with Pseudomonas aeruginosa, 63 µM; against Escherichia coli, 2 µM.

For the compound `C=CC[N+](C)(CC[N+](C)(C)CCCCCCCCCCC)CC[N+](C)(C)CCCCCCCCCCC`, the MIC against Enterococcus faecalis turned out to be 2 µM; against Staphylococcus aureus it was 1 µM; with Pseudomonas aeruginosa it was 16 µM; against Escherichia coli, 2 µM.

Consider `CCCCCCCCCCCC[N+](C)(C)CCC[N+](C)(CCC[N+](C)(C)CCCCCCCCCCCC)Cc1ccc(CCCCCCCC)cc1`, for which the MIC with Enterococcus faecalis was 1 µM; against Staphylococcus aureus it was 1 µM; in the experiment with Pseudomonas aeruginosa, 4 µM; in the experiment with Escherichia coli, 1 µM.

On to `C=CC[N+](C)(CCC[N+](C)(C)CCCCCCCCCCCC)CCC[N+](C)(C)CCCCCCCCCCCC`, for which the MIC in the experiment on Enterococcus faecalis worked out at 2 µM; against Staphylococcus aureus, 1 µM; in the experiment with Pseudomonas aeruginosa, 4 µM; against Escherichia coli, 2 µM.

In the case of `CCCCCCCCCCCC[N+](C)(C)CCC[N+](C)(C)CCC[N+](C)(C)CCCCCCCCCCCC`, the MIC in the experiment on Enterococcus faecalis amounted to 2 µM; with Staphylococcus aureus, 1 µM; against Pseudomonas aeruginosa, 8 µM; in the experiment with Escherichia coli, 2 µM.

Consider `CCCCCCCCCCCC[N+](C)(C)CCCCCCC[N+](C)(C)CCCCCCCCCCCC`, for which the MIC against Enterococcus faecalis worked out at 1 µM; against Staphylococcus aureus, 1 µM; against Pseudomonas aeruginosa it was 8 µM; against Escherichia coli it was 2 µM.

Take `CCCCCCCCCCCC[N+](C)(C)CC[N+](C)(C)CC[N+](C)(C)CCCCCCCCCCCC`: the MIC with Enterococcus faecalis was at most 60.2 µM; against Staphylococcus aureus, at most 60.2 µM; with Pseudomonas aeruginosa it was 1 µM; with Escherichia coli, 0.5 µM.

Take `CCCCCCCCCCCCCCCC[N+](C)(C)CCCCC[N+](C)(C)CCCCCCCCCCCCCCCC`: the MIC with Enterococcus faecalis stood at 2 µM; in the experiment with Staphylococcus aureus, 2 µM; with Pseudomonas aeruginosa it was 32 µM; against Escherichia coli it was 16 µM.

Take `CCCCCCCCCCCC[N+](C)(C)CCCCC[N+](C)(C)CCCCCCCCCCCC`: the MIC amounted to 1 µM with Enterococcus faecalis, 2 µM in the experiment with Staphylococcus aureus, 2 µM in the experiment on Pseudomonas aeruginosa and 1 µM in the experiment with Escherichia coli.

Take `C=CC[N+](C)(CC[N+](C)(C)CCCCCCCCCCCCCC)CC[N+](C)(C)CCCCCCCCCCCCCC`: the MIC turned out to be 2 µM against Enterococcus faecalis, 2 µM in the experiment on Staphylococcus aureus, 8 µM in the experiment on Pseudomonas aeruginosa and 2 µM in the experiment on Escherichia coli.

In the case of `CCCCCCCCCCCCCC[N+](C)(C)CCN(C)CCN(C)CCN(C)C`, the MIC against Enterococcus faecalis was determined as 16 µM; in the experiment on Staphylococcus aureus, 16 µM; against Pseudomonas aeruginosa it was 125 µM; in the experiment with Escherichia coli it was 32 µM.

`C=CC[N+](C)(CC[N+](C)(C)CCCCCCCCCCCCCCCC)CC[N+](C)(C)CCCCCCCCCCCCCCCC`: the MIC against Enterococcus faecalis was 4 µM; with Staphylococcus aureus it was 4 µM; in the experiment with Pseudomonas aeruginosa, 16 µM; against Escherichia coli it was 8 µM.

Take `CCCCCCCCCCC[N+](C)(C)CC[N+](C)(C)CC[N+](C)(C)CCCCCCCCCCC`: the MIC against Enterococcus faecalis was determined as 2 µM; with Staphylococcus aureus, 2 µM; in the experiment with Pseudomonas aeruginosa, 8 µM; with Escherichia coli, 4 µM.

As to `CCCCCCCCCCCCCC[N+](C)(C)CCN(C)CC[N+](C)(C)CCCCCCCCCCCCCC`, the MIC came out at 1 µM in the experiment on Enterococcus faecalis, 2 µM against Staphylococcus aureus, 16 µM in the experiment with Pseudomonas aeruginosa and 4 µM in the experiment on Escherichia coli.

In the case of `C=CC[N+](C)(CC[N+](C)(C)CCCCCCCCCCCC)CC[N+](C)(C)CCCCCCCCCCCC`, the MIC was 2 µM in the experiment on Enterococcus faecalis, 2 µM with Staphylococcus aureus, 4 µM in the experiment on Pseudomonas aeruginosa and 2 µM against Escherichia coli.

Turning to `CCCCCCCCCCCCCC[N+](C)(C)CC[N+](C)(C)CC[N+](C)(C)CCCCCCCCCCCCCC`, the MIC was 1 µM in the experiment with Enterococcus faecalis, 1 µM against Staphylococcus aureus, 8 µM in the experiment with Pseudomonas aeruginosa and 2 µM against Escherichia coli.

Consider `CCCCCCCCCCCC[N+](C)(C)CCN(C)CCN(C)CCN(C)C`, for which the MIC against Enterococcus faecalis turned out to be 8 µM; with Staphylococcus aureus, 8 µM; against Pseudomonas aeruginosa, 32 µM; with Escherichia coli, 8 µM.

On to `CCCCCCCCCCCC[N+](C)(C)CCN(C)CCN(C)CC[N+](C)(C)CCCCCCCCCCCC`, for which the MIC with Enterococcus faecalis is 1 µM; in the experiment on Staphylococcus aureus, 1 µM; in the experiment on Pseudomonas aeruginosa it was 4 µM; against Escherichia coli, 1 µM.

For `C=CC[N+](C)(CC[N+](C)(C)CCCCCCCCCCCC)CC[N+](C)(CC=C)CC[N+](C)(C)CCCCCCCCCCCC` (configuration not stated), the MIC came out at 1 µM in the experiment with Enterococcus faecalis, 1 µM against Staphylococcus aureus, 2 µM against Pseudomonas aeruginosa and 1 µM in the experiment with Escherichia coli.

Take `CCCCCCCCCCCCCC[N+](C)(C)CCN(C)CCN(C)CC[N+](C)(C)CCCCCCCCCCCC`: the MIC against Enterococcus faecalis came out at 1 µM; against Staphylococcus aureus it was 1 µM; in the experiment on Pseudomonas aeruginosa it was 8 µM; against Escherichia coli it was 2 µM.

Turning to `CCCCCCCCCCCCCC[N+](C)(C)CCN(C)CCN(C)CC[N+](C)(C)CCCCCCCCCCCCCC`, the MIC in the experiment on Enterococcus faecalis worked out at 1 µM; against Staphylococcus aureus, 2 µM; in the experiment with Pseudomonas aeruginosa, 16 µM; in the experiment with Escherichia coli, 2 µM.

For the compound `CCCCCCCCCC[N+](C)(C)CC[N+](C)(C)CC[N+](C)(C)CCCCCCCCCC`, the MIC against Enterococcus faecalis was determined as 8 µM; in the experiment on Staphylococcus aureus, 2 µM; with Pseudomonas aeruginosa, 63 µM; with Escherichia coli, 8 µM.

Take `CCCCCCCCCCCC[N+](C)(C)CCC[N+](C)(CCC[N+](C)(C)CCCCCCCCCCCC)Cc1ccccc1`: the MIC in the experiment on Enterococcus faecalis turned out to be 1 µM; in the experiment on Staphylococcus aureus, 1 µM; in the experiment on Pseudomonas aeruginosa it was 2 µM; in the experiment on Escherichia coli it was 1 µM.

On to `CCCCCCCCCCCC[N+](C)(C)CCN(C)CC[N+](C)(C)CCCCCCCCCCCC`, for which the MIC stood at 1 µM with Enterococcus faecalis, 1 µM with Staphylococcus aureus, 4 µM with Pseudomonas aeruginosa and 2 µM in the experiment on Escherichia coli.

`CCCCCCCCCC[N+](C)(C)CCCCC[N+](C)(C)CCCCCCCCCC`: the MIC in the experiment on Enterococcus faecalis is 4 µM; with Staphylococcus aureus, 2 µM; with Pseudomonas aeruginosa, 63 µM; with Escherichia coli, 8 µM.

For `CCCCCCCCCCC[N+](C)(C)CCN(C)CC[N+](C)(C)CCCCCCCCCCC`, the MIC with Enterococcus faecalis amounted to 2 µM; against Staphylococcus aureus, 2 µM; with Pseudomonas aeruginosa it was 8 µM; in the experiment on Escherichia coli, 2 µM.

On to `CCCCCCCCCC[N+](C)(C)CCN(C)CC[N+](C)(C)CCCCCCCCCC`, for which the MIC in the experiment on Enterococcus faecalis was 8 µM; in the experiment on Staphylococcus aureus it was 2 µM; in the experiment on Pseudomonas aeruginosa it was 63 µM; against Escherichia coli, 8 µM.

With `CCCCCCCCCCCCCC[N+](C)(C)CCCCC[N+](C)(C)CCCCCCCCCCCCCC`, the MIC with Enterococcus faecalis was determined as 1 µM; with Staphylococcus aureus it was 1 µM; in the experiment on Pseudomonas aeruginosa it was 16 µM; in the experiment with Escherichia coli, 4 µM.

With `CCCCCCCCCCCC[N+](C)(C)CCCN(C)CCC[N+](C)(C)CCCCCCCCCCCC`, the MIC in the experiment on Enterococcus faecalis was found to be 2 µM; in the experiment with Staphylococcus aureus, 1 µM; in the experiment with Pseudomonas aeruginosa it was 4 µM; against Escherichia coli, 1 µM.

(Values after ChEMBL document CHEMBL3351952, “The antimicrobial activity of mono-, bis-, tris-, and tetracationic amphiphiles derived from simple polyamine platforms” (2014).)
